Test results as given in patent US11154519B2, “Inhibitors and their uses” (MEDICAL RESEARCH COUNCIL, priority 2015, dated 2021).

How the values were obtained:
HeLa cells = assay: Assay 4: protection of cells from tunicamycin stress (WST-8); assay type: cell-based, human; conditions: Tunicamycin 2.5 μg/ml, 0.2-5 μM compound, 3 days
Method: Cells were plated in 24-well plates at a density of 15,000 (HeLa) or 12,000 cells/ml (MEFs) 24 hours prior to treatment. ER stress was elicited by addition of fresh media containing 2.5 μg/ml tunicamycin (Sigma-Aldrich). Compounds of Example 1 were dissolved in DMSO and added as indicated. DMSO was used as a mock treatment. Cell viability was assessed by measuring the reduction of WST-8 [2-(2-methoxy-4-nitrophenyl)-3-(4-nitrophenyl)-5-(2,4-disulfophenyl)-2H-tetrazolium] into formazan using Cell viability Counting Kit-8 (Dojindo) according to the supplier's recommendation, […] after tunicamycin treatment.
Cells where stressed with Tunicamycin (2.5 μg/ml) in the presence of 0.2-5 μM of a compound of Example 1. Cell viability was measured 3 days after treatment.
Cytoprotection against ER stress can be measured by a suitable assay. In this instance, cytoprotection was measured in HeLa cells in which ER stress was elicited by the addition of media containing tunicamycin, a drug that blocks N-glycosylation, thereby preventing protein folding and inducing the unfolded protein response. Cell viability was then detected in the presence and absence of a compound of Example 1 after a set period of time, by measuring the reduction of WST-8 into formazan using the standard cell viability kit Cell Viability Counting Kit-8 from Dojindo. […]

eIF2α phosphorylation = assay: Assay 5: eIF2α phosphorylation during stress-recovery (DTT wash out); assay type: cell-based; conditions: 30 minute 1 mM DTT and wash out, before R15A is expressed
Method: HeLa cells were cultured in Dulbecco's Modified Eagle's Media (DMEM) supplemented with penicillin, streptomycin, containing 5% and 10% fetal bovine serum (FBS), respectively. MEF cells were cultured in DMEM supplemented with penicillin, streptomycin, glutamine, 55 μM β-mercaptoethanol, 1× non-essential amino acids (Sigma-Adrich) and 10% FBS. Where indicated, cells were treated with 2.5 μg/ml tunicamycin, 1 mM DTT (Sigma-Adrich) and or the indicated compounds at the indicated concentrations.
(§1) For immunoblots, HeLa cells (80,000 cells/ml) were plated in 12-well plates 24 hours before each experiment. Immediately after the indicated treatments, cells were lysed in 75 μl Laemmli Buffer, boiled at 95° C. for 5 minutes and sonicated. Proteins were separated and analysed as described (Tsaytler et al., Science, 332, 91-94, 2011) with the following antibodies: phospho-elf2α [pS52] and PPP1R15A/GADD34 (10449-1-AP; ProteinTech Group, 1/1000 dilution) and ATF4 (Sc-200 Santa Cruz).
The inventors reasoned that a PPP1R15B inhibitor should prolong eIF2α phosphorylation following stress. […] The inventors took advantage of the fast kinetic and reversibility of stress induction by DTT (Bertolotti et al., Nat. Cell. Biol., 2, 326-332, 2000; Jousse et al., 2003) and monitored eIF2α phosphorylation in cells following a 30 minute treatment with 1 mM DTT and a wash out. […]

[1] = Toxicity in mice (clinical signs, weight); assay type: in vivo; design: clinical signs: dose or concentration left out as unconfirmed; conditions: 2 weeks, oral
Method: For studying the effect of a compound of Example 1 on weight, C3H/B6 mice were gavaged orally once a day with compounds of Example 1 and mice weight was recorded daily for 2 weeks.
Mice were treated with Example 1 and monitored closely to detect any clinical signs. […] This establishes that PPP1R15B inhibition is not toxic. This was surprising and unanticipated as prior to this study one would have speculated that PPP1R15B inhibitors would be so deleterious that they would have no therapeutic potential.

mice = assay: Side effects of Guanabenz: activity of mice after dosing; assay type: in vivo; conditions: 10 mg/kg oral gavage
Method: To assess whether of a compound of Example 1 had the side effects of Guanabenz, mice (n>3) were gavaged orally with 10 mg/kg of compound or Guanabenz. Their activity was monitored 30 minutes following dosing.
In humans, the adrenergic agonist activity of Guanabenz has side effects including drowsiness and coma at high doses (A. H. Hall, Ann Intern Med 102; 787-788; 1985). Due to of these side effects, Guanabenz is no longer used in human. It is anticipated that Guanabenz derivatives have the side effects of Guanabenz, associated with alpha-2 adrenergic activity.

PPP1R15A = assay: Assay 6: PPP1R15A induction in mouse brain (qPCR); assay type: in vivo; conditions: mice, dose-dependent
Method: RNA from brain was extracted in trizol (Life Technologies). RNA concentration was measured using a NANODROP1000 spectrophotometer (Thermo Fisher Scientific), and 1 μg was reverse transcribed to cDNA using a SuperScript reverse transcriptase (Life Technologies). Quantitative PCR with primers GAPDH (f): […], GAPDH (r): […], PPP1R15A (f): […]; and PPP1R15A (r): […] was performed using SYBR® Select Master Mix (Ref 4472908, applied biosystems) on a Corbett Rotor-Gene version 6000. Expression of each gene was normalized to the housekeeping gene GAPDH and expressed as fold change calculated using Paffl equation.
PPP1R15A induction was assessed by qPCR on total mRNA extracted from brains of mice treated with the indicated doses of compound of Example 1.
This explains why a selective PPP1R15B inhibitor is tolerated in mice: PPP1R15A induction dephosphorylates eIF2α, ensuring that the eIF2α phosphorylation which results from PPP1R15B inhibition by a compound of Example 1 is only transient. This is important because a persistent phosphorylation of eIF2α is detrimental. The induction of PPP1R15A in vivo by a PPP1R15B inhibitor is a pharmacodynamic parameter that can be used to evaluate the efficacy and potency of PPP1R15B inhibitors in mammals in pre-clinical or clinical studies.

ATF4 = ATF4 immunoblot in cells; assay type: cell-based, human; conditions: 20 μM; 0, 2, 5, 7.5 h, FIG. 13
Method: as §1
Translation can be inhibited at many levels. To ensure that the R15A and B inhibitors are on-target, we monitor the levels of ATF4 in cells treated with compounds. A R15A/B inhibitor persistently induce eIF2α phosphorylation and eIF2α phosphorylation results in ATF4 translation. We show here that an A/B inhibitor indeed induces ATF4, confirming target engagement in cells.

Structure (SMILES)	protection of cells from stress (cell viability) (HeLa cells)	eIF2α phosphorylation following stress (eIF2α phosphorylation)	clinical signs [1]	weight gain ([1]; up to 10 mg/mg once a day)	activity of mice 30 minutes following dosing (mice)	PPP1R15A induction (mRNA, brain) (PPP1R15A)	expression of ATF4 (immunoblot) (ATF4)
[H]/N=C(\N)NN=Cc1cccc(Cl)c1Cl [Compound 16, (E)-2-(2,3-dichlorobenzylidene)hydrazine-1-carboximidamide]	protects cells from cytotoxic stress caused by tunicamycin	prolongs eIF2⊐ phosphorylation following stress	undistinguishable from mice treated with placebo	gained weight normally	as active as untreated mice	induced PPP1R15A	
[H]/N=C(\N)NN=Cc1cc(Cl)cc(Cl)c1Cl [Compound 10, (E)-2-(2,3,5-trichlorobenzylidene)hydrazine-1-carboximidamide]							induces expression of ATF4
